In patent US10300058B2, “Tyrosine kinase inhibitor and uses thereof” (Xuanzhu Pharma Co., Ltd., priority 2014, dated 2019):
Values belong to the compound of their own block, whether it stands above or below them.

What was measured:
EGFR T790M-L858R = EGFR T790M-L858R (Homo sapiens (Human), UniProt P00533, L858R/T790M); assay: Mobility Shift Assay, in vitro enzyme-inhibiting activity, EGFR T790M-L858R; type: biochemical; conditions: Table 5
Method: (§1) 1. Preparation of Reagents
(§2) 2. Preparation of a Compound Solution
(§3) (1) To the second well of a 96-well plate, 5 μL 10 mM compound (dissolved in DMSO) was added, and 95 μL 100% DMSO was added to prepare 100 μL 0.5 mM compound.
(§4) (2) To other wells, 60 μL 100% DMSO was added. 20 μL compound from the second well was added to the third well, and 4-fold dilution was further performed to get 10 diluted concentrations.
(§5) (3) To the first well and the twelfth well of the 96-well plate, 100 μL 100% DMSO was separately added, and the two wells were used as control wells.
(§6) (4) 10 μL from each well of the 96-well plate was added to another 96-well plate, and 90 μL 1-fold kinase buffer was added.
(§7) (5) 5 μL from the 96-well plate was added to another 384-well plate, for example, transferred from A1 well of the 96-well plate to A1 and A2 wells of the 384-well plate, and transferred from A2 well of the 96-well plate to A3 and A4 wells of the 384-well plate, and so on.
(§8) To 384-well plate, 10 μL 2.5-fold enzyme solution was added, and incubated at room temperature for 10 min.
(§9) (5) Kinase reaction and stop
(§10) After incubation at 28° C. for a period of time (depending on kinase), 25 μL stop solution was added.
(§11) 4. Data on percent conversion was read by Caliper.
(§12) (1) Data on enzyme activity was obtained by Caliper program;
(§13) (2) Inhibition rate of enzyme activity was calculated from the data on enzyme activity by the following formula: Inhibition rate(%)=(maximal value−the measured value of a test compound)/(maximal value-minimal value)×100,
(§14) wherein, the maximal value represents the measured value of DMSO control; and the minimal value represents the measured value of blank control.
(§15) (3) Calculation of IC50 value by XLFit excel.

EGFR L858R = EGFR L858R (Homo sapiens (Human), UniProt P00533, L858R); assay: Mobility Shift Assay, in vitro enzyme-inhibiting activity, EGFR L858R; type: biochemical; conditions: Table 5
Method: as §1, §2, §3, §4, §5, §6, §7, §8, §9, §10, §11, §12, §13, §14, §15

EGFR (d746-750) = EGFR (d746-750) (Homo sapiens (Human), UniProt P00533, DEL746-750); assay: Mobility Shift Assay, in vitro enzyme-inhibiting activity, EGFR (d746-750); type: biochemical; conditions: Table 5
EGFR (d746-750), sequence (P00533 other isoform, or with tags, fused parts or gaps del 1-668/del 746-750 limits assumed): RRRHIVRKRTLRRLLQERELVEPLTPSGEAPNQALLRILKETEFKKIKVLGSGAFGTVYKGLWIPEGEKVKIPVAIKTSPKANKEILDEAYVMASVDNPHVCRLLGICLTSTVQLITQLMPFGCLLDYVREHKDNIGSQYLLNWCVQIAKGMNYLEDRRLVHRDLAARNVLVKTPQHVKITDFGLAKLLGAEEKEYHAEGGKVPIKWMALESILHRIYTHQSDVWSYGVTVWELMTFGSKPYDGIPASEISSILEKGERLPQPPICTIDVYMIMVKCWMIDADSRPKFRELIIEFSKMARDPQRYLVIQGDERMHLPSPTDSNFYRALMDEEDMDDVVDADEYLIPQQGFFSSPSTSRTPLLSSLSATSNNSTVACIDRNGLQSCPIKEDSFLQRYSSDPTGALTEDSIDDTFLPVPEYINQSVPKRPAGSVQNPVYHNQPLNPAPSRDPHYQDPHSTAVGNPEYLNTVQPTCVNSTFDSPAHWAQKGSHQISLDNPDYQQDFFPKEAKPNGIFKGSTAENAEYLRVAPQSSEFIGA
Method: as §1, §2, §3, §4, §5, §6, §7, §8, §9, §10, §11, §12, §13, §14, §15

EGFR T790M = EGFR T790M (Homo sapiens (Human), UniProt P00533, T790M); assay: Mobility Shift Assay, in vitro enzyme-inhibiting activity, EGFR T790M; type: biochemical; conditions: for IC50: Km ATP; for Selectivity (WT/T790M): ratio of IC50
EGFR T790M, sequence (P00533 25-1210 T790M): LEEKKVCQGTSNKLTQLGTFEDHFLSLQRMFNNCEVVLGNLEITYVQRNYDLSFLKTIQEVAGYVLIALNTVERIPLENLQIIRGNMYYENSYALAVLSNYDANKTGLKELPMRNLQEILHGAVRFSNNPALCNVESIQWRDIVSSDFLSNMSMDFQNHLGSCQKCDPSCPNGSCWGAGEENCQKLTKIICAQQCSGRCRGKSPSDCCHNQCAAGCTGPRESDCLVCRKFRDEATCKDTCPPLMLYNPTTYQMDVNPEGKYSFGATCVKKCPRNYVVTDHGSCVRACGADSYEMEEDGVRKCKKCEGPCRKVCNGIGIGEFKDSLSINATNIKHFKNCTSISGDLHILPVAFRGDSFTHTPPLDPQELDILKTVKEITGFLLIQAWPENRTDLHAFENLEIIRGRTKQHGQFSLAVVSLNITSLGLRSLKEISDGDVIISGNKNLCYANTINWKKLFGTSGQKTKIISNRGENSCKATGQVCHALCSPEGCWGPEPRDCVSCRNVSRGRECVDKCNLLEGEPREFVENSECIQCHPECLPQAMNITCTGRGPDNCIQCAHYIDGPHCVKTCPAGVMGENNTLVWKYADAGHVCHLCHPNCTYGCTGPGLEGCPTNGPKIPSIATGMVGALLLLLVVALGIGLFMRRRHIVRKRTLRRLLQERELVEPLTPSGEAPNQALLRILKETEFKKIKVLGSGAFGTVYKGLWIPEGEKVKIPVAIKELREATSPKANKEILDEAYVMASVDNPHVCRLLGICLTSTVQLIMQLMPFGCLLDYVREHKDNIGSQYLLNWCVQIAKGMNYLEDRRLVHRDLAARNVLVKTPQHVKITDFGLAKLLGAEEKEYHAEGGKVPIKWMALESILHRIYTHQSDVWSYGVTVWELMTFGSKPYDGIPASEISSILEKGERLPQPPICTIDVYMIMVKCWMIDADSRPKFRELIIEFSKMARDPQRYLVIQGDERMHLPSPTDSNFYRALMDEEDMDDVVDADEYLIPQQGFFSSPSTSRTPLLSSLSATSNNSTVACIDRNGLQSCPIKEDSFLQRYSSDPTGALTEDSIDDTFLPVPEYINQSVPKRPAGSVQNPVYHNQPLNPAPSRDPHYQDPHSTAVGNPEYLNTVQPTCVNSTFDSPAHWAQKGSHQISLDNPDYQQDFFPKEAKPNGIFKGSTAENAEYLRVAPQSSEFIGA
Method: as §1, §2, §3, §4, §5, §6, §7, §8, §9, §10, §11, §12, §13, §14, §15

wild-type EGFR (WT EGFR) = wild-type EGFR (WT EGFR) (Homo sapiens (Human), UniProt P00533); assay: Mobility Shift Assay, in vitro enzyme-inhibiting activity, wild-type EGFR; type: biochemical; conditions: Km ATP
wild-type EGFR (WT EGFR), sequence (P00533 25-1210): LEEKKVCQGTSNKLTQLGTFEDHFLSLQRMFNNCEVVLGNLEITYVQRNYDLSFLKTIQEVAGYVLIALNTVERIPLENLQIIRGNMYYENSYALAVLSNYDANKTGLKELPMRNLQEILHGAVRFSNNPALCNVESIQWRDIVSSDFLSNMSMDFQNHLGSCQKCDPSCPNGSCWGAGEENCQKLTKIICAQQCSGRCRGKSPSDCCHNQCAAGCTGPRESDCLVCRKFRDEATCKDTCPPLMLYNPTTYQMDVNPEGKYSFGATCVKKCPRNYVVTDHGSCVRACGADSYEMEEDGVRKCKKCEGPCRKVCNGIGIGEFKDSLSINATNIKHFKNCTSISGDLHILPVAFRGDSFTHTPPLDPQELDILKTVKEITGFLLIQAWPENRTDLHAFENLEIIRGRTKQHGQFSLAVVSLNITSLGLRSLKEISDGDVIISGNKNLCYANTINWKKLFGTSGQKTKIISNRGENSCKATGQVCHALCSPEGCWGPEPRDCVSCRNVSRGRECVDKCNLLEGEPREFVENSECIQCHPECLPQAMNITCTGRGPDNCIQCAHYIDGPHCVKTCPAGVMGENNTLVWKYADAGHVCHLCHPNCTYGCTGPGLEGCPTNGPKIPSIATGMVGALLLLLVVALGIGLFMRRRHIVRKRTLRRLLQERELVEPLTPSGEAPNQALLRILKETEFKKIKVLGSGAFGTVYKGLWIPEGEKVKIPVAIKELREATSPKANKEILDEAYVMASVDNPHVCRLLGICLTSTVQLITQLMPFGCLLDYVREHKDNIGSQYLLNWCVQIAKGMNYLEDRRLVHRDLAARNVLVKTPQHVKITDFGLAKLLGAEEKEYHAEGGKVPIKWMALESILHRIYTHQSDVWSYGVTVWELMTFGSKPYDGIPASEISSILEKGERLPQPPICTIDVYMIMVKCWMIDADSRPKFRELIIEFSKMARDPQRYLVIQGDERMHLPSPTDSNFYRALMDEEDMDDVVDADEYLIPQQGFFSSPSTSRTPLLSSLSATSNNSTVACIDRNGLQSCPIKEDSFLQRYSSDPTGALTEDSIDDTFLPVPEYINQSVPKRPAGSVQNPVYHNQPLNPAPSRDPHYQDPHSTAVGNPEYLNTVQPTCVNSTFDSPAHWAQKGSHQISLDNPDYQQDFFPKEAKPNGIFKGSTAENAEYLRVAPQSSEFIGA
Method: as §1, §2, §3, §4, §5, §6, §7, §8, §9, §10, §11, §12, §13, §14, §15

[1] = tested on: H1975 cell (EGFR-T790M/L858R double mutation); assay: In vitro cytologic activity, Celltiter-Glo, H1975 cells; type: cell-based, human; conditions: for IC50: Homo sapiens, NCI-H1975, 72 h, 72 h, Celltiter-Glo; for Selectivity (A431/H1975): ratio of IC50
Method: (§16) 1.1 Preparation of Cell Suspension
(§17) Culture medium was removed from culture bottle;
(§18) PBS was added to wash the cells; • pancreatin was added for digestion, and the cells were collected by centrifugation; • the cells were resuspended in a culture medium containing 10% fetal bovine serum, counted and adjusted to a concentration of 2×10^4/mL or 3×10^4/mL (cell viability must be greater than 90%); • the cell suspension was added to a 96-well plate, at 100 μL for each well, i.e., 2000/well for H1975 cell; 3000/well for A431 cell; and • the cells were cultured at 37° C. in 5% CO2 incubator overnight.
(§19) Dilution of a compound in DMSO (or water for injection) • (1) The compound was 5-fold diluted with DMSO from 10 mM to 2 mM, and then 4-fold diluted from 2 mM, to get 10 concentrations; • High control (HC, control without compound inhibition): 0.5% DMSO; • Low control (LC, control with compound inhibition): 1000 nM.
(§20) i. To each well, 99 μL growth medium containing 10% FBS was added, and then 1 μL diluted compound was added, the total volume of the well was […], and the final concentration of the compound was measured.
(§21) The test plate was left at room temperature, and equilibrated for 30 min. 80 μL culture medium was discarded. 60 μL CTG reagent (Celltiter-Glo kit) was added, and shaked for 2 min in a fast shaker, and was placed at room temperature for 10 min. The values were read by Envision instrument.

[2] = tested on: A431 cell (wild-type EGFR gene); assay: In vitro cytologic activity, Celltiter-Glo, A431 cells; type: cell-based; conditions: Homo sapiens, A-431, 72 h
Method: as §16, §17, §18, §19, §20, §21

EGFR T790M-L858R, sequence (P00533 25-1210 T790M/L858R): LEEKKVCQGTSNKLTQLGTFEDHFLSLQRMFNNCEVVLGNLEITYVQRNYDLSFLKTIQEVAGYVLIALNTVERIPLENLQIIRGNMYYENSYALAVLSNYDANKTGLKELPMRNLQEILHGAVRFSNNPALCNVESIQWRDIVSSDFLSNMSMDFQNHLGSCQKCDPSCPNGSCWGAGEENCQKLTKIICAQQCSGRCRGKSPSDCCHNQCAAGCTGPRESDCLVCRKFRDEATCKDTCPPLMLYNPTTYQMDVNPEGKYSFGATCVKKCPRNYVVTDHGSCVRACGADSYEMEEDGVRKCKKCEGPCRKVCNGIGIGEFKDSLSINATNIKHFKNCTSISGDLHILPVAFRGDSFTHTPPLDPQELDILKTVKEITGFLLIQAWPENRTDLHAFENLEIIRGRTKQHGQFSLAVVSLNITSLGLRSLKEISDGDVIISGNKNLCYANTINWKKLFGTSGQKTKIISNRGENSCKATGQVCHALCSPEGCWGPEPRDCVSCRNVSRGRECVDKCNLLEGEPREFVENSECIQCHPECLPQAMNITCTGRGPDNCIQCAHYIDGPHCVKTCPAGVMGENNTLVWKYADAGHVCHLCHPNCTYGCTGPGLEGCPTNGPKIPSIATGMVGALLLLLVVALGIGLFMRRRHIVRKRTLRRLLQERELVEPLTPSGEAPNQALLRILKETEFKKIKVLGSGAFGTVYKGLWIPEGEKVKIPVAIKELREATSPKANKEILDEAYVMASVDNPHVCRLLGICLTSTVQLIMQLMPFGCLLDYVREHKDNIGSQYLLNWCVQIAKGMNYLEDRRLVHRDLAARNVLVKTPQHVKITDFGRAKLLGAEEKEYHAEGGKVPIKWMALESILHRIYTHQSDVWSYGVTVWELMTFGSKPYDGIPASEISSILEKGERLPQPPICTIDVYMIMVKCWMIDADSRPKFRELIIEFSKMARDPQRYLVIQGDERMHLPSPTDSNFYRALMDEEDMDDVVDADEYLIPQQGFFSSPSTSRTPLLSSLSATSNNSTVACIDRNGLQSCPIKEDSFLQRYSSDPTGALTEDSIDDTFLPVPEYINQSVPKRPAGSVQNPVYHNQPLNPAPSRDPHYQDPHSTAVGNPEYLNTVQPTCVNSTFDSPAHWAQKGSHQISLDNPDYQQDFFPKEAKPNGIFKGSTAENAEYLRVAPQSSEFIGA

IC50 (EGFR T790M-L858R; Km ATP): 4.4 nM | Selectivity WT/T790M-L858R (EGFR T790M-L858R; ratio of IC50): 54.3 | IC50 (EGFR L858R; Km ATP): 84.7 nM | Selectivity WT/L858R (EGFR L858R; ratio of IC50): 2.8 | IC50 (EGFR (d746-750); Km ATP): 20.3 nM | Selectivity WT/d746-750 (EGFR (d746-750); ratio of IC50): 11.8 | IC50 (EGFR T790M; Table 1): 5.7 nM | Selectivity (WT/T790M) (EGFR T790M; Table 1): 56.7 | IC50 (wild-type EGFR (WT EGFR); Table 1): 323 nM | IC50 (wild-type EGFR (WT EGFR); Table 5): 240 nM | IC50 ([1]; Table 9): 54.2 nM | IC50 ([2]; Table 9): 448 nM
SMILES: C=CC(=O)Nc1cccc(Nc2nc(Nc3ccc(N4CCN(C(C)=O)CC4)cc3OC)ncc2C(F)(F)F)n1 [Compound 1, N-(6-((2-((4-(4-acetylpiperazin-1-yl)-2-methoxyphenyl)amino)-5-(trifluoromethyl)pyrimidin-4-yl)amino)pyridin-2-yl)acrylamide]
Selectivity (A431/H1975) ([1]; Table 9): 8.3

IC50 (EGFR T790M; Table 2): 13 nM | Selectivity (WT/T790M) (EGFR T790M; Table 2): 49.2 | IC50 (wild-type EGFR (WT EGFR); Table 2): 640 nM | IC50 ([1]; Table 9): 179 nM | IC50 ([2]; Table 9): 1770 nM
SMILES: C=CC(=O)Nc1cccc(Nc2nc(Nc3cc4c(cc3OC)CN(C(C)=O)CC4)ncc2C(F)(F)F)c1 [Compound 11, N-(3-((2-((2-acetyl-7-methoxy-1,2,3,4-tetrahydroisoquinolin-6-yl)amino)-5-(trifluoromethyl)pyrimidin-4-yl)amino)phenyl)acrylamide]
Selectivity (A431/H1975) ([1]; Table 9): 9.9

IC50 (EGFR T790M; Table 4, unit inferred): 1.4 nM | Selectivity (WT/T790M) (EGFR T790M; Table 4): 58.6 | IC50 (wild-type EGFR (WT EGFR); Table 4, unit inferred): 82 nM | IC50 ([1]; Table 10, unit inferred): 28.5 nM | IC50 ([2]; Table 10, unit inferred): 247 nM
SMILES: C=CC(=O)Nc1cccc(Nc2nc(Nc3ccc(C4CCN(C5COC5)CC4)cc3OC)ncc2C(F)(F)F)c1 [Compound 41, N-(3-((2-((2-methoxy-4-(1-(oxetan-3-yl)piperidin-4-yl)phenyl)amino)-5-(trifluoromethyl)pyrimidin-4-yl)amino)phenyl)acrylamide]
Selectivity (A431/H1975) ([1]; Table 10): 8.6
